Laboratory results reported in patent publication US12646341B2, “Image processing method and image processing program” (TOPPAN Inc., priority 2020, dated 2026).

Test system: vascular network structure of 3D hepatic model (PXB cells, SEC, Lx2)
From the text: The vascular network structure of the cell structure becomes visible by subjecting the 3D hepatic model to immunostaining, fluorescent modification, or a combination of immunostaining and fluorescent modification.
The preparation process may include, for example, a first collection process of collecting cells other than fresh human hepatocytes isolated from chimeric mice with human hepatocytes (PXB cell) shown in Table 1, a second collection process of collecting PXB cells, a mixture obtaining process of obtaining a cell mixture, a suspension obtaining process of obtaining a cell suspension, a gel formation process of forming a fibrin gel, and a model obtaining process of obtaining a 3D model.
In the mixture obtaining process, for example, the cells collected in the first collection process and the second collection process are mixed so that a total quantity of cells per well becomes 30,000 cells at the cell ratios of PXB cells, SEC and Lx2 in the tissue of 65%, 25% and 10%, respectively, to obtain a cell mixture (an example of cell structure). The cell mixture contains multiple types of cells including vascular endothelial cells and other stromal cells.
In the suspension obtaining process, first, for example, a heparin-collagen solution is prepared by mixing equal amounts of a 1.0 mg/ml heparin solution (buffer: 100 mM Tris-HCL) and a 0.3 mg/ml collagen solution (buffer: 5 mM acetate). Then, 100 μL of the heparin-collagen solution prepared as described above is added to each cell mixture obtained in the mixture obtaining process, and the mixture is suspended until the cells are no longer visually observable and then centrifuged (400 g×2 min) to obtain a viscous solution. After the supernatant is removed from the viscous solution, a solvent is added to the viscous solution so that the final volume of the viscous solution becomes the solution amount of [the number of wells to be seeded]×2 μL. Thus, a cell suspension is obtained. […]

O=P1(N(CCCl)CCCl)NCCCO1 (stereo not drawn) [cyclophosphamide]
length of the vascular network structure in the captured images (FIGS. 9A-9F, dosage concentration 0 M, 143 M, 430 M, 1430 μM, 4300 μM and 14300 M): the higher the dosage concentration of cyclophosphamide, the smaller the length of the vascular network structure
skeleton length in the extracted images (FIGS. 9G-9L, dosage concentration 0 M, 143 M, 430 M, 1430 μM, 4300 μM and 14300 M): the higher the dosage concentration of cyclophosphamide, the smaller the skeleton length
shape of the vascular network structure (skeleton length and number of branch points in the extracted images) (FIGS. 10A and 10B, against dosage concentration): the shape of the vascular network structure significantly changes and the vascular network structure decreases when the dosage concentration of cyclophosphamide exceeds a certain level
